# Entries after “also recorded” stand apart in the source; their conditions may differ.
# Key:
# fetal hemoglobin = test: circulating fetal hemoglobin levels in phase II clinical trial patients (CTCL and PTCL); format: in vivo, human; details: at least two months, 44 patients evaluated
# Procedure: As part of an ongoing phase II clinical trial into the effects of romidepsin in patients with cutaneous (CTCL) and peripheral (PTCL) T-cell lymphoma, the levels of circulating fetal hemoglobin were determined. From a total of 53 patients in the trial, 44 were evaluated. Romidepsin was administered as a 4 hour infusion on days 1, 8, and 15 of a 28 day cycle with a dose of 14 mg/m^2. Fetal hemoglobin levels were measured during at least two months of treatment with romidepsin. Fetal hemoglobin levels were expressed first as a percent of the patient's total hemoglobin and then corrected (by multiplying the total hemoglobin by percent fetal hemoglobin).
# fetal liver cells = test: toxicity analysis of CFUe colonies (number and size of colonies); format: cell-based, mouse
# Procedure: (§1) To determine if romidepsin alters human globin expression erythroid colony forming unit assays were conducted. This involved extracting fetal liver cells from the developing embryo, at a time when both γ and β globin are expressed. Cells were then cultured in a semi-solid media (methyl-cellulose) containing growth factors (SCF and Epo) with or without romidepsin. We harvested CFUe colonies at 2 days of culture (a pool of 10 from each treatment, each treatment was performed in duplicate) and performed an immediate cell lysis and cDNA amplification. The cDNA was then subjected to real-time PCR to determine levels of mouse α, human γ and human β globin gene expression. The cells were treated with a range of romidepsin concentrations from 0.185 nM to 18.5 nM, and the colony assay was performed on 6 separate occasions.
# Each colony was also analyzed for toxicity effects. […] Thus globin analysis at this dose is not presented.
# [1] = tested on: human β globin gene expression; test: erythroid colony forming unit (CFUe) assay, real-time PCR of human β globin gene expression; format: cell-based; details: 0.185 nM or 1.85 nM; relative to mouse α levels and control
# Procedure: (§2) Experiments were performed with mice that are transgenic for a yeast artificial chromosome that contains the full human β-globin locus. […] However mice do have the appropriate transcription factors to interpret and express the human globin locus.
# as §1
# (§3) The results (0.185 nM or 1.85 nM romidepsin) are presented in FIG. 1 relative to mouse α levels, and relative to the control performed in each particular experiment. […] When the 0.185 nM and 1.85 nM data are combined there is a 130-fold increase in γ globin expression, as compared to mouse α globin expression and untreated cells.
# [2] = tested on: human γ globin gene expression; test: erythroid colony forming unit (CFUe) assay, real-time PCR of human γ globin gene expression; format: cell-based, mouse
# Procedure: as §2, §1, §3
# [3] = fold increase in fetal hemoglobin 0-2, 14 mg/m^2 4 hour infusion days 1, 8, 15 of 28 day cycle
# [4] = fold increase in fetal hemoglobin 2-5, 14 mg/m^2
# [5] = fold increase in fetal hemoglobin 5-10, 14 mg/m^2
# [6] = fold increase in fetal hemoglobin 10-20, 14 mg/m^2
# [7] = fold increase in fetal hemoglobin >2, 14 mg/m^2
# [8] = fold increase in fetal hemoglobin >5, 14 mg/m^2
# [9] = fold increase in fetal hemoglobin >10, 14 mg/m^2
# [10] = fold increase in fetal hemoglobin >20, 14 mg/m^2
smiles,measurement,setting,value
"C/C=C1\NC(=O)[C@H]2CSSCC/C=C/[C@H](CC(=O)N[C@H](C(C)C)C(=O)N2)OC(=O)[C@H](C(C)C)NC1=O [romidepsin, (1S,4S,10S,16E,21R)-7-[(2Z)-ethylidene]-4,21-diisopropyl-2-oxa-12,13-dithia-5,8,20,23-tetraazabicyclo[8.7.6]tricos-16-ene-3,6,9,19,22-pentanone]",% of patients,fetal hemoglobin; [3],23%
same,Number of patients,fetal hemoglobin; [3],10
same,% of patients,fetal hemoglobin; [4],23%
same,Number of patients,fetal hemoglobin; [4],10
same,% of patients,fetal hemoglobin; [5],20%
same,Number of patients,fetal hemoglobin; [5],9
same,% of patients,fetal hemoglobin; [6],23%
same,Number of patients,fetal hemoglobin; [6],10
same,% of patients,fetal hemoglobin; [7],77%
same,Number of patients,fetal hemoglobin; [7],34
same,% of patients,fetal hemoglobin; [8],55%
same,Number of patients,fetal hemoglobin; [8],24
same,% of patients,fetal hemoglobin; [9],34%
same,Number of patients,fetal hemoglobin; [9],15
same,% of patients,fetal hemoglobin; [10],11%
same,Number of patients,fetal hemoglobin; [10],5
same,total number of colonies or size of CFUe,fetal liver cells; 0.185 nM and 1.85 nM,no differences
same,toxicity to the fetal liver cells,"fetal liver cells; 18.5 nM, accurate data not gathered",toxic
same,β globin gene expression following romidepsin treatment,[1],not affected; also recorded: no change
same,fold increase in γ globin expression,"[2]; 0.185 nM and 1.85 nM data combined, compared to mouse α globin expression and untreated cells, transgenic fetal liver CFUe colonies, 2 days of culture, mean±SEM, n=6",130 fold
same,γ globin gene expression following romidepsin treatment,"[2]; 0.185 nM or 1.85 nM, relative to mouse α levels and control",increase; also recorded: up-regulation
same,expression of human globin at the highest doses,[2]; highest doses of romidepsin,lower

# Reference: patent publication US20130123184A1, “METHODS FOR […] OF HUMAN FETAL HEMOGLOBIN” (National Institutes of Health, priority 2007, published 2013)
